According to ChEMBL document CHEMBL3871292, “Evaluation of dipeptide nitriles as inhibitors of rhodesain, a major cysteine protease of Trypanosoma brucei” (Bioorg Med Chem Lett, 2017):

Legend:
[1] = biological target: Procathepsin L (Homo sapiens, UniProt P07711); experiment: Inhibition of human cathepsin L using Z-Phe-Arg-pNA as substrate measured after 10 to 80 mins by spectrophotometric method
[2] = system: Trypanosoma brucei; experiment: Inhibition of Trypanosoma brucei rhodesain using Cbz-Phe-Arg-AMC as substrate at 20 uM by fluorescence-based assay
[3] = Inhibition of Trypanosoma brucei rhodesain using Cbz-Phe-Arg-AMC as substrate by fluorescence-based assay
[4] = system: Trypanosoma brucei brucei; experiment: Antitrypanosomal activity against Trypanosoma brucei brucei BS449 measured after 72 hrs using ATPlite-1 reagent by cell based luciferase reporter gene assay; assay type: functional
[5] = system: Trypanosoma brucei; experiment: Inhibition of Trypanosoma brucei rhodesain using Cbz-Phe-Arg-AMC as substrate at 0.05 to 20 uM by fluorescence-based assay; conditions: TDE = time-dependent effect
[6] = system: Trypanosoma brucei brucei; experiment: Antitrypanosomal activity against Trypanosoma brucei brucei Trypanosoma brucei brucei BS449 measured after 48 hrs using ATPlite-1 reagent by cell based luciferase reporter gene assay; assay type: functional; conditions: BS449, 48 h
[7] = system: Trypanosoma brucei brucei; experiment: Antitrypanosomal activity against Trypanosoma brucei brucei BS449 measured after 24 hrs using ATPlite-1 reagent by cell based luciferase reporter gene assay; assay type: functional; conditions: BS449, 24 h
[8] = Stability of the compound in HMI-9 medium measured after 48 hrs; assay type: physicochemical
[9] = Inhibition of Trypanosoma brucei rhodesain using 10 uM of Cbz-Phe-Arg-AMC as substrate by Cheng-Prusoff equation analysis
[10] = Selectivity index, ratio of Ki for human cathepsin L to Ki for competitive inhibition of Trypanosoma brucei rhodesain
[11] = Competitive inhibition of Trypanosoma brucei rhodesain in presence of varying levels of Cbz-Phe-Arg-AMC substrate by Cheng-Prusoff equation analysis
[12] = Solubility of the compound in HMI-9 medium; assay type: physicochemical
[13] = Solubility of the compound in PBS; assay type: physicochemical; conditions: buffer
[14] = Trypanosoma brucei, BS449, 72 h, read-out: EC50
[15] = Trypanosoma brucei, BS449, 72 h, read-out: pEC50 (converted)

Sequence of Procathepsin L (P07711 whole entry): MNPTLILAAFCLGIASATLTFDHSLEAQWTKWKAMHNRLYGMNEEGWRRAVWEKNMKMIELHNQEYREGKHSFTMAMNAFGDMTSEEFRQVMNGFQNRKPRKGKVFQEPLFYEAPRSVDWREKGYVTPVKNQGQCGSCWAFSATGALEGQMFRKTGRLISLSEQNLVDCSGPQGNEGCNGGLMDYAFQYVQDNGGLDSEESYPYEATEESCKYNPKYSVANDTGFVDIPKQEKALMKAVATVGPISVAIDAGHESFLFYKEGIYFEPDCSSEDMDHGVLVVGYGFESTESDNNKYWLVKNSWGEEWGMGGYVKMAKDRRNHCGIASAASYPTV

inhibition [2] [%]	Ki [3] [nM]	Compound	also measured
37	–	CC(C)CS(=O)(=O)CC(NC(=O)c1ccc(-c2ccccc2)s1)C(=O)NCC#N (racemic)	–
> 50	795	CC(C)(C)OC(=O)N[C@H](C(=O)NCC#N)c1ccccc1	–
> 50	12.3	CC(C)(C)OC(=O)N[C@@H](Cc1ccc(Br)cc1)C(=O)NCC#N	EC50 [4, 14]: 129000 nM; EC50 [4, 15]: 130000 nM; inhibition [5]: Tde; EC50 ([6]; read-out: EC50): 104000 nM; EC50 ([7]; read-out: EC50): 43000 nM
> 50	387	CC(C)(C)OC(=O)N[C@@H](Cc1ccsc1)C(=O)NCC#N	–
> 50	43.8	CC(C)(C)OC(=O)N[C@@H](Cc1ccc(F)cc1)C(=O)NCC#N	EC50 [4, 14]: 217000 nM; EC50 [4, 15]: 217000 nM; EC50 ([6]; read-out: EC50): 105000 nM; EC50 ([7]; read-out: EC50): 169000 nM
> 50	55	CC(C)(C)OC(=O)N[C@@H](Cc1ccccc1)C(=O)NCC#N	–
> 50	90	CC(C)(C)OC(=O)N[C@@H](Cc1csc2ccccc12)C(=O)NCC#N	–
> 50	820	CC(C)CS(=O)(=O)CC(NC(=O)c1cc(-c2ccccc2)cs1)C(=O)NCC#N (racemic)	–
> 50	73.8	CC(C)(C)OC(=O)N[C@@H](Cc1cccc(F)c1)C(=O)NCC#N	–
> 50	1270	CC(C)(C)OC(=O)N[C@H](CC(=O)NC#N)Cc1ccccc1	–
> 50	413	CN(C)c1cccc2c(S(=O)(=O)N[C@@H](Cc3ccccc3)C(=O)NCC#N)cccc12	–
> 50	49.2	CC(C)(C)OC(=O)N[C@@H](Cc1ccccc1F)C(=O)NCC#N	EC50 [4]: Nd(Unstable); Stability [8]: Unstable; EC50 ([6]; read-out: EC50): 70000 nM; EC50 ([7]; read-out: EC50): 77000 nM
> 50	44.6	N#CCNC(=O)[C@H](Cc1ccc(O)cc1)NC(=O)OCc1ccccc1	–
> 50	47	CC(C)(C)OC(=O)N[C@@H](Cc1ccc(O)cc1)C(=O)NCC#N	–
> 50	125	CC(C)(C)OC(=O)N[C@@H](Cc1c[nH]c2ccccc12)C(=O)NCC#N	–
> 50	27.6	CC(C)(C)OC(=O)N[C@@H](Cc1cccc(Br)c1)C(=O)NCC#N	–
> 50	950	CC(C)(C)OC(=O)N[C@@H](COCc1ccccc1)C(=O)NCC#N	–
> 50	26	COc1ccc(C[C@H](NC(=O)OCc2ccccc2)C(=O)NCC#N)cc1	–
22	–	N#CCNC(=O)C1(NC(=O)OCc2ccccc2)CCCCC1	Ki [1]: > 5000 nM
15	–	CC(C)CS(=O)(=O)CC(NC(=O)c1cc2ccccc2s1)C(=O)NCC#N (racemic)	–
> 50	–	N#CCNC(=O)[C@H](Cc1cccc(Br)c1)NC(=O)c1ccc(-c2ccccc2)cc1	inhibition [5]: Tde; Ki [9]: 9.2 nM; Ratio Ki [10]: 200; Ki [11]: 2.6 nM
25	–	CC(C)CS(=O)(=O)CC(NC(=O)c1ccc(-c2cccs2)cc1)C(=O)NCC#N (racemic)	–
> 50	42	N#CCNC(=O)[C@H](Cc1ccccc1)NC(=O)OCc1ccccc1	EC50 [4]: Nd(Unstable); Stability [8]: Unstable; EC50 ([6]; read-out: EC50): 79000 nM; EC50 ([7]; read-out: EC50): 63000 nM
> 50	52	CC(C)(C)OC(=O)N[C@@H](Cc1ccc(-c2ccccc2)cc1)C(=O)NCC#N	–
> 50	615	CC(C)(C)OC(=O)N[C@@H](Cc1ccco1)C(=O)NCC#N	–

Second part, the compound before the results:

Compound	inhibition [2] [%]	Ki [3] [nM]	also measured
N#CCNC(=O)C1(NC(=O)c2ccc(-c3noc(-c4cccs4)n3)cc2)CCCCC1	> 50	1540	Ki [1]: > 5000 nM
CC(C)CS(=O)(=O)CC(NC(=O)c1ccc(-c2cccs2)s1)C(=O)NCC#N (racemic)	> 50	900	–
CSCC[C@H](NC(=O)OC(C)(C)C)C(=O)NCC#N	> 50	1170	–
CC(C)CS(=O)(=O)CC(NC(=O)c1cc2ccsc2s1)C(=O)NCC#N (racemic)	25	–	–
CC(C)(C)OC(=O)N[C@@H](CC1CC1)C(=O)NCC#N	30	–	–
CN(C)c1cccc2c(S(=O)(=O)NC3(C(=O)NCC#N)CCCCC3)cccc12	11	–	–
CC(C)CS(=O)(=O)CC(NC(=O)c1cccs1)C(=O)NCC#N (racemic)	9	–	–
CC[C@H](NC(=O)OC(C)(C)C)C(=O)NCC#N	10	–	–
CC(C)CS(=O)(=O)CC(NC(=O)c1ccc(-c2ccsc2)s1)C(=O)NCC#N (racemic)	29	–	–
N=C(NCCCCCCNC(=N)NC(=N)Nc1ccc(Cl)cc1)NC(=N)Nc1ccc(Cl)cc1 [CHLORHEXIDINE]	–	–	EC50 [4, 14]: 349 nM; EC50 [4, 15]: 350 nM; EC50 ([6]; read-out: EC50): 321 nM; EC50 ([6]; read-out: pEC50 (converted)): 321 nM; EC50 ([7]; read-out: EC50): 440 nM; EC50 ([7]; read-out: pEC50 (converted)): 441 nM
CCCC[C@H](NC(=O)OC(C)(C)C)C(=O)NCC#N	> 50	750	–
CC(C)C[C@H](NC(=O)Nc1ccc(-c2noc(-c3cccs3)n2)cc1)C(=O)NCC#N	> 50	172	–
CC[C@H](C)[C@H](NC(=O)OC(C)(C)C)C(=O)NCC#N	> 50	1470	–
CC(C)C[C@H](NC(=O)c1ccc(-c2noc(-c3cccs3)n2)cc1)C(=O)NCC#N	> 50	–	EC50 [4, 14]: 6000 nM; EC50 [4, 15]: 6190 nM; inhibition [5]: Tde; solubility [12]: Insoluble; Ki [9]: 9.2 nM; EC50 ([6]; read-out: EC50): 10000 nM; solubility [13]: Insoluble; Ratio Ki [10]: 200; EC50 ([7]; read-out: EC50): 8000 nM; Ki [11]: 5.3 nM
CC(C)[C@H](NC(=O)OC(C)(C)C)C(=O)NCC#N	> 50	1490	–
CC(C)CS(=O)(=O)CC(NC(=O)c1ccc(-c2nnn[nH]2)s1)C(=O)NCC#N (racemic)	16	–	–
CC(C)(C)OC(=O)N[C@@H](CC1CCCCC1)C(=O)NCC#N	> 50	68	–
CCN(CC)c1ccc2cc(C(=O)NC3(C(=O)NCC#N)CCCCC3)c(=O)oc2c1	> 50	790	–
